Converted amounts (≈) assume the structure as drawn.
How the values were obtained:
Enterococcus sp. = assay: in vitro antibacterial evaluation, MIC by broth dilution; type: cell-based; settings: broth dilution, 18 hours at 35° C.
In short: (§1)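 Following National Committee for Clinical Laboratory Standards recommendations (M7-A2), susceptibility was measured by dilution in Muller-Hinton II […]. Bacteria were seeded at 5×10^5 CFU/mL against compound concentrations from 64 down to 0.06 μg/mL.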

Staphylococcus sp. = assay: as above; type: cell-based; settings: broth dilution, 18 hours at 35° C.
In short: as §1

Streptococcus sp. = assay: as above; type: cell-based; settings: broth dilution, 18 hours at 35° C.
In short: as §1

[1] = tested on: Staphylococcus aureus-SMITH (GC 4543); assay: acute lethal infection in mice; type: in vivo; settings: acute lethal infection, female CD-1 mice, intraperitoneal challenge, intravenous 30 min. after infection, 7 day survival
In short: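 Survival at 7 days, pooled from three independent tests, yields ED50 values. Treatment is intravenous, 30 min after ip infection of female CD-1 mice, using an inoculum lethal to untreated controls within 24-48 hr.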

Escherichia coli = assay: in vitro antibacterial evaluation, MIC by broth dilution; type: cell-based; settings: 18 hours at 35° C.

CC(c1ccccc1)C1NC(=O)CNC(=O)C(CO)NC(=O)C(C(O)C2CNC(=N)N2C2OC(CO)C(O)C(O)C2O)NC(=O)C(C(O)C2CNC(=N)N2)NC(=O)C(Cc2ccc(OC3OC(CO)C(OC4OC(COCc5ccc(OCc6ccccc6)cc5)C(O)C(O)C4O)C(O)C3O)cc2)NC1=O (stereo not drawn) [Example 231, Cyclo[glycyl-β-methylphenylalanyl-O-[4-O-[6-O-[4-(phenylmethoxy)benzyl]hexopyranosyl]-hexopyranosyl]tyrosyl-3-(2-iminoimidazolidin-4-yl)seryl-3-(3-hexopyranosyl-2-iminoimidazolidin-4-yl)serylseryl]]
MIC Enterococcus avium (GC 4558) (Enterococcus sp.): 2 to 4 µg/mL
MIC Enterococcus faecalis (ATCC 29212) (Enterococcus sp.): 4 µg/mL (≈ 2.68 µM)
MIC Enterococcus faecalis (GC 2242) (Enterococcus sp.): 4 µg/mL (≈ 2.68 µM)
MIC Enterococcus faecalis (GC 2691) (Enterococcus sp.): 2 to 4 µg/mL
MIC Enterococcus faecalis (GC 3059) (Enterococcus sp.): 2 to 4 µg/mL
MIC Enterococcus faecalis (GC 4552) (Enterococcus sp.): 4 µg/mL (≈ 2.68 µM)
MIC Enterococcus faecalis (GC 4553) (Enterococcus sp.): 4 µg/mL (≈ 2.68 µM)
MIC Enterococcus faecalis (GC 4554) (Enterococcus sp.): 4 µg/mL (≈ 2.68 µM)
MIC Enterococcus faecalis (GC 6189) (Enterococcus sp.): 2 to 4 µg/mL
MIC Enterococcus faecium (GC 2243) (Enterococcus sp.): 4 µg/mL (≈ 2.68 µM)
MIC Enterococcus faecium (GC 4556) (Enterococcus sp.): 4 µg/mL (≈ 2.68 µM)
MIC Enterococcus faecium (GC 4557) (Enterococcus sp.): 1 to 2 µg/mL
MIC Enterococcus faecalis (ATCC 29212) (Enterococcus sp.; inoculum 5×10^5 CFU/mL, strain ATCC 29212): 4 µg/mL (≈ 2.68 µM)
MIC Enterococcus faecalis (GC 2242) (Enterococcus sp.; inoculum 5×10^5 CFU/mL, strain GC 2242): 4 µg/mL (≈ 2.68 µM)
MIC Enterococcus faecium (GC 2243) (Enterococcus sp.; inoculum 5×10^5 CFU/mL, strain GC 2243): 4 µg/mL (≈ 2.68 µM)
MIC Enterococcus faecalis (GC 2691) (Enterococcus sp.; inoculum 5×10^5 CFU/mL, strain GC 2691): 2 to 4 µg/mL
MIC Enterococcus faecalis (GC 3059) (Enterococcus sp.; inoculum 5×10^5 CFU/mL, strain GC 3059): 2 to 4 µg/mL
MIC Enterococcus faecalis (GC 4552) (Enterococcus sp.; inoculum 5×10^5 CFU/mL, strain GC 4552): 4 µg/mL (≈ 2.68 µM)
MIC Enterococcus faecalis (GC 4553) (Enterococcus sp.; inoculum 5×10^5 CFU/mL, strain GC 4553): 4 µg/mL (≈ 2.68 µM)
MIC Enterococcus faecalis (GC 4554) (Enterococcus sp.; inoculum 5×10^5 CFU/mL, strain GC 4554): 4 µg/mL (≈ 2.68 µM)
MIC Enterococcus faecium (GC 4556) (Enterococcus sp.; inoculum 5×10^5 CFU/mL, strain GC 4556): 4 µg/mL (≈ 2.68 µM)
MIC Enterococcus faecium (GC 4557) (Enterococcus sp.; inoculum 5×10^5 CFU/mL, strain GC 4557): 1 to 2 µg/mL
MIC Enterococcus avium (GC 4558) (Enterococcus sp.; inoculum 5×10^5 CFU/mL, strain GC 4558): 2 to 4 µg/mL
MIC Enterococcus faecalis (GC 6189) (Enterococcus sp.; inoculum 5×10^5 CFU/mL, strain GC 6189): 2 to 4 µg/mL
MIC Coagulase Negative Staphylococcus (GC 4547) (Staphylococcus sp.): 1 to 2 µg/mL
MIC Coagulase Negative Staphylococcus (GC 4548) (Staphylococcus sp.): 0.5 to 1 µg/mL
MIC Coagulase Negative Staphylococcus (GC 4549) (Staphylococcus sp.): 0.25 to 0.5 µg/mL
MIC Coagulase Negative Staphylococcus (GC 4551) (Staphylococcus sp.): 1 µg/mL (≈ 0.67 µM)
MIC Coagulase Negative Staphylococcus (GC 6257) (Staphylococcus sp.): 0.5 to 1 µg/mL
MIC Staphylococcus aureus (ATCC 29213) (Staphylococcus sp.): 1 to 4 µg/mL
MIC Staphylococcus aureus (GC 1131) (Staphylococcus sp.): 2 to 4 µg/mL
MIC Staphylococcus aureus (GC 3051) (Staphylococcus sp.): 1 to 2 µg/mL
MIC Staphylococcus aureus (GC 3053) (Staphylococcus sp.): 1 to 2 µg/mL
MIC Staphylococcus aureus (GC 4541) (Staphylococcus sp.): 1 to 4 µg/mL
MIC Staphylococcus aureus (GC 4542) (Staphylococcus sp.): 2 to 4 µg/mL
MIC Staphylococcus aureus (GC 4544) (Staphylococcus sp.): 2 to 4 µg/mL
MIC Staphylococcus aureus (GC 4545) (Staphylococcus sp.): 1 to 4 µg/mL
MIC Staphylococcus aureus-SMITH (GC 4543) (Staphylococcus sp.): 2 µg/mL (≈ 1.34 µM)
MIC Staphylococcus haemolyticus (GC 4546) (Staphylococcus sp.): 1 to 4 µg/mL
MIC Staphylococcus aureus (ATCC 29213) (Staphylococcus sp.; strain ATCC 29213): 1 to 4 µg/mL
MIC Staphylococcus aureus (GC 1131) (Staphylococcus sp.; strain GC 1131): 2 to 4 µg/mL
MIC Staphylococcus aureus (GC 3051) (Staphylococcus sp.; strain GC 3051): 1 to 2 µg/mL
MIC Staphylococcus aureus (GC 3053) (Staphylococcus sp.; strain GC 3053): 1 to 2 µg/mL
MIC Staphylococcus aureus (GC 4541) (Staphylococcus sp.; strain GC 4541): 1 to 4 µg/mL
MIC Staphylococcus aureus (GC 4542) (Staphylococcus sp.; strain GC 4542): 2 to 4 µg/mL
MIC Staphylococcus aureus-SMITH (GC 4543) (Staphylococcus sp.; strain GC 4543): 2 µg/mL (≈ 1.34 µM)
MIC Staphylococcus aureus (GC 4544) (Staphylococcus sp.; strain GC 4544): 2 to 4 µg/mL
MIC Staphylococcus aureus (GC 4545) (Staphylococcus sp.; strain GC 4545): 1 to 4 µg/mL
MIC Staphylococcus haemolyticus (GC 4546) (Staphylococcus sp.; strain GC 4546): 1 to 4 µg/mL
MIC Coagulase Negative Staphylococcus (GC 4547) (Staphylococcus sp.; strain GC 4547): 1 to 2 µg/mL
MIC Coagulase Negative Staphylococcus (GC 4548) (Staphylococcus sp.; strain GC 4548): 0.5 to 1 µg/mL
MIC Coagulase Negative Staphylococcus (GC 4549) (Staphylococcus sp.; strain GC 4549): 0.25 to 0.5 µg/mL
MIC Coagulase Negative Staphylococcus (GC 4551) (Staphylococcus sp.; strain GC 4551): 1 µg/mL (≈ 0.67 µM)
MIC Coagulase Negative Staphylococcus (GC 6257) (Staphylococcus sp.; strain GC 6257): 0.5 to 1 µg/mL
MIC Streptococcus agalactiae (GC 4564) (Streptococcus sp.): <0.06 µg/mL
MIC Streptococcus pneumoniae (ATCC 6301) (Streptococcus sp.): <0.06 µg/mL
MIC Streptococcus pneumoniae (GC 1894) (Streptococcus sp.): <0.06 µg/mL
MIC Streptococcus pneumoniae (GC 4565) (Streptococcus sp.): <0.06 µg/mL
MIC Streptococcus pyogenes (GC 4563) (Streptococcus sp.): <0.06 µg/mL
MIC Streptococcus pneumoniae (ATCC 6301) (Streptococcus sp.; inoculum 5×10^5 CFU/mL, strain ATCC 6301): <0.06 µg/mL
MIC Streptococcus pneumoniae (GC 1894) (Streptococcus sp.; inoculum 5×10^5 CFU/mL, strain GC 1894): <0.06 µg/mL
MIC Streptococcus pyogenes (GC 4563) (Streptococcus sp.; inoculum 5×10^5 CFU/mL, strain GC 4563): <0.06 µg/mL
MIC Streptococcus agalactiae (GC 4564) (Streptococcus sp.; inoculum 5×10^5 CFU/mL, strain GC 4564): <0.06 µg/mL
MIC Streptococcus pneumoniae (GC 4565) (Streptococcus sp.; inoculum 5×10^5 CFU/mL, strain GC 4565): <0.06 µg/mL
median effective dose (ED50), Staphylococcus aureus-SMITH (GC 4543) [1]: 0.25 mg/kg
MIC Escherichia coli (ATCC 25922) (Escherichia coli): >128 µg/mL
MIC Escherichia coli (GC 4559) (Escherichia coli): >128 µg/mL
MIC Escherichia coli (GC 4560) (Escherichia coli): 0.5 to 2 µg/mL

From patent publication US6914045B2, “Glycopeptide antibiotics” (Wyeth Holdings Corporation, priority 2001, dated 2005)
